Source: EP4781984A1 (Beyang Therapeutics Co., Ltd., priority 2023, dated 2025)
≈ marks a conversion by molar mass, not a printed value. Blank lines part the entries; values can stand above or below the compound they belong to.

Tests used:
[1] = molecular target: T1, VEGFR1 (Homo sapiens, UniProt P17948); test: Kinase inhibitory activity, Mobility Shift Assay (VEGFR1); assay type: biochemical
T1 construct: purchased Invitrogen PR6731B
Experimental: (§1) Assay for Inhibitory Activity of Compounds Against VEGFR and EGFR Kinases
(§2) This assay directly monitors the inhibitory activity of compounds on kinase phosphorylation by measuring non-phosphorylated and phosphorylated substrates in the kinase reaction using Mobility Shift Assays/IMAP™ analysis. Table 2. Reagents and Instruments
(§3) Kinase and DTT were added to 1X kinase buffer to form a 2.5X kinase solution; 10 µL of the 2.5X kinase solution was transferred to a 384-well reaction plate, and 1X kinase buffer was added to the negative control wells. The plate was incubated at room temperature for 10 minutes; FAM-labeled peptide, MgCl2, ATP, and other reagents were added to 1X kinase buffer to form a 2.5X substrate solution; 10 µL of the above 2.5X substrate solution was transferred to the 384-well reaction plate; the plate was incubated at 28°C for varying times, and then 25 µL of stop solution was added to the 384-well reaction plate to terminate the reaction. Conversion rate data were read on a CaliperEZ Reader II. […] IC50 values were fitted using XLFit excel add-in version 5.4.0.8. Y = Bottom + (Top−Bottom)/(1 + […]) [formula]
(§4) X is the log value of compound concentration, Y is the inhibition rate (% inhibition).

[2] = Thermodynamic solubility test; assay type: physicochemical; details: buffer solution, aqueous buffer, thermodynamic from solid; thermodynamic solubility, room temperature, 8 hours shaking; buffers pH 2.0, 6.5, 7.4 used, pH of the tabulated value not given
Outline: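 Samples sonicated 10 min, shaken 8 h at room temperature, re-sonicated and centrifuged at 13000 rpm for 15 min. Supernatant recentrifuged and analysed by LC-MS, with concentrations quantified against a 3–5 point calibration curve.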

[3] = test system: melanin; test: Compound binding to melanin; assay type: in vitro ADME; details: cuttlefish (Sepia officinalis), melanin suspension (1 mg/mL), percentage of free drug (not bound to melanin), 2 µM compound, melanin 1 mg/mL in PBS pH 7.4, 37°C
Outline: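 Compound at 2 µM final incubated with 1 mg/mL Sepia melanin in PBS pH 7.4, 37°C, 2 hours with shaking; blank in PBS with 0.1% BSA. Supernatant concentration by LC-MS/MS. Fb = 100 − (Ctest/Ccontrol) × 100%.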

[4] = Plasma and ocular tissue distribution after single ocular administration of formulations in Dutch Belted rabbits (Example 9); assay type: in vivo; details: for concentration at 0.5 h: male, rabbit, plasma, other: ocular administration (eye drops)
Experimental: Male Dutch Belted rabbits used in this experiment were purchased from Pizhou Dongfang Breeding Co., Ltd., with animal weights ranging from 1.5 to 2.5 kg. All procedures performed on experimental animals in this experiment complied with the relevant SOP requirements of Suzhou Sunstone New Drug Development Co., Ltd. and were approved by the Institutional Animal Care and Use Committee (IACUC) of Suzhou Sunstone New Drug Development Co., Ltd. Formulation Preparation: Weigh approximately 1 mg of the test substance into a glass vial. After necessary calculation/conversion, sequentially add the eye drop formulation vehicle (Tris-HCl buffer (0.05 mol/L): Tween 80: 0.5% CMC-Na = 49: 1:50). Vortex and sonicate after adding Tris-HCl buffer and Tween 80, then add 0.5% CMC-Na, vortex, and sonicate or cut if necessary, to prepare a 1 mg/mL dosing formulation. All prepared dosing formulations were freshly prepared on the day of administration, sampled, and the actual concentration of the dosing formulation was determined.
On the day of the experiment, animals were administered 1 mg/mL (0.05 mg/eye, 50 µL/eye). There were 2 animals per group. Animals were euthanized at 0.5, 4, or 8 hours after administration, respectively, by an appropriate method, and blood samples and ocular tissues (i.e., cornea, retina, choroid, and sclera) were collected. The collected 1 mL of whole blood was placed in an EDTA-K2 anticoagulant tube, inverted several times to mix thoroughly, and centrifuged (1500-1600 g) for 10 minutes within 30 minutes to separate plasma. The obtained plasma samples were stored at -80°C for bioanalysis. After collection, ocular tissues were washed with pre-cooled saline, dried, and stored at -80°C or under equivalent conditions for subsequent tissue homogenization and sample analysis. For ocular tissues requiring homogenization, the entire or a portion of the tissue was selected, accurately weighed, and homogenized at a 1:10 ratio with 20% methanol-water. The tissue homogenate was stored at -80°C for sample analysis. The concentrations of each analyte in rabbit ocular tissues and plasma obtained in this experiment were determined using an LC-MS/MS analytical method. The matrices were Dutch rabbit plasma (EDTA-K2 anticoagulated) and rabbit ocular tissue (1:10, 20% methanol-water). Left and right eyes were tested separately. BLOQ (Below the Limit of Quantification) is the lowest analyte concentration that can be quantified with acceptable precision and accuracy. Compounds were diluted 1:10 with homogenate before analysis, and if the concentration after dilution was less than 1 ng/mL, it was marked as BLOQ.
Example 9: Detection of Plasma and Ocular Tissue Distribution after Single Ocular Administration of Formulations in Dutch Belted Rabbits
The experimental procedure refers to Example 6. Animals were administered eye drops at 5 mg/mL (0.25 mg/eye, 50 µL/eye) or 1 mg/mL (0.05 mg/eye, 50 µL/eye), respectively. Table 22 Experimental Results
Except for compound I-32, the other components of Suspension A and Solution B are respectively: • Suspension A: Tris(hydroxymethyl)aminomethane-Hydrochloric Acid Buffer (0.05M): Tween 80: 0.5% (w/v) Sodium Carboxymethylcellulose aqueous solution = 49:1:50 (v/v/v); • Solution B: Polyethylene Glycol 400: 50mM Tris(hydroxymethyl)aminomethane-Hydrochloric Acid Buffer (containing 10% Hydroxypropyl-β-cyclodextrin, 1% Poloxamer 188, 0.3% Gellan Gum Gelrite, w/v) = 5:95 (v/v).

[5] = Ophthalmic formulations based on polyethylene glycol series vehicles: composition and state (Example 7); assay type: physicochemical
Source text: (§5) In the following ophthalmic formulation preparation examples, "solution" refers to a clear, transparent liquid without visible insoluble matter. "Near-clear solution" refers to a liquid that appears close to a solution upon visual observation but may contain a small amount of insoluble particles or have a slightly opaque color. "Suspension" refers to a liquid that is visibly turbid or opaque. "Gel" refers to a completely or partially gel-like solid.
Example 7: Ophthalmic Formulations Based on Polyethylene Glycol Series Vehicles
According to the formulation composition shown in the tables below, weigh the compound powder, add it to polyethylene glycol 400, and sonicate until dissolved or nearly dissolved (heat to 50°C if necessary). Add this to a Tris-HCl buffer solution containing hydroxypropyl-β-cyclodextrin, poloxamer 188, and gellan gum (or other viscosity modifier), vortex to mix, and prepare into an eye drop formulation.

[6] = molecular target: T2, VEGFR2 (Homo sapiens, UniProt P35968); test: Kinase inhibitory activity, Mobility Shift Assay (VEGFR2); assay type: biochemical
T2 construct: purchased Carna 08-191
T2 sequence (P35968 20-1356): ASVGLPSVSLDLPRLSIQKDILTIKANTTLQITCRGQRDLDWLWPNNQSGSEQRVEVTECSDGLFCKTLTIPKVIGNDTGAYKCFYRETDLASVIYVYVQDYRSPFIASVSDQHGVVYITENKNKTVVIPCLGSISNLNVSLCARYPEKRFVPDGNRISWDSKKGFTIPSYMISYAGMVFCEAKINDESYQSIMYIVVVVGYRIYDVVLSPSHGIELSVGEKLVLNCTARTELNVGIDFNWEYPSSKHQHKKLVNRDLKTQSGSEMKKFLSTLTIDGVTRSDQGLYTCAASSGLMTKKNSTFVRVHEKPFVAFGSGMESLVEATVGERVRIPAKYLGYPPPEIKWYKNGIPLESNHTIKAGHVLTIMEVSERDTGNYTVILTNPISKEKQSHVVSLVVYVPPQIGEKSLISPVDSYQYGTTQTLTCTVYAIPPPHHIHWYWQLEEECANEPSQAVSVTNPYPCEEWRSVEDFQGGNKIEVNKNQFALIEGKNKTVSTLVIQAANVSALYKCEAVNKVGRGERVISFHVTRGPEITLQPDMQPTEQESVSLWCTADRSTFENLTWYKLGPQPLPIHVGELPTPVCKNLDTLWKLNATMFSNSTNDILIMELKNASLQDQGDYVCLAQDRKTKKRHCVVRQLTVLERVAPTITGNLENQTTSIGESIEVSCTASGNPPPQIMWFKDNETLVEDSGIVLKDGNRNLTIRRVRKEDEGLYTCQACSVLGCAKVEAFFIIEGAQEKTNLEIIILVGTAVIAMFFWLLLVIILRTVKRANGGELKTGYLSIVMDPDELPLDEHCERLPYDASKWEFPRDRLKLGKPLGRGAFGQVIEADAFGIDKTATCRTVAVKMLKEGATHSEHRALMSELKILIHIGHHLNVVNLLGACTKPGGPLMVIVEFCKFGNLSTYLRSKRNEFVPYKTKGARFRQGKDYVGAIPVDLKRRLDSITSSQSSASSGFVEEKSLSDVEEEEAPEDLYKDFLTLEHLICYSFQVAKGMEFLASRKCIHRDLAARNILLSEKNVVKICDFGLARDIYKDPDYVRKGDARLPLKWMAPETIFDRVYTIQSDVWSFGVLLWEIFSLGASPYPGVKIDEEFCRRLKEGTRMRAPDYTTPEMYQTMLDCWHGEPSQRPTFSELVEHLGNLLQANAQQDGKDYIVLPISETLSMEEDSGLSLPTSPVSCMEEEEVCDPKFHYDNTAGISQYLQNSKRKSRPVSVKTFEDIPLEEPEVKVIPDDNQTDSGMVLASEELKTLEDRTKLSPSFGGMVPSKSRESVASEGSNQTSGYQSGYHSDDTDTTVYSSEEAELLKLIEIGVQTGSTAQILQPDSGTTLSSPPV
Experimental: as §1, §2, §3, §4

[7] = Ophthalmic formulations based on in situ salt formation technology: composition and state (Example 8); assay type: physicochemical; details: pH ~7
Source text: as §5
Example 8: Ophthalmic Formulation Based on In Situ Salt Formation Technology
Therefore, by preparing ophthalmic formulation compositions based on in situ salt formation technology, the solubility of the compounds can be further improved.
According to the formulation composition shown in the table below, weigh the compound powder, add 50% of the total volume (v/v) of a 30% (w/v) aqueous solution of hydroxypropyl-β-cyclodextrin (containing surfactant), and disperse by sonication; next, add an appropriate volume of pH regulator and sonicate until clear; then, add an equal volume of buffer containing solubilizer, viscosity modifier, etc., for dilution, and immediately vortex to mix; finally, add an appropriate volume of alkali regulator to adjust the solution pH to approximately 7, to prepare an eye drop formulation.
Using the in situ salt formation method, the compound is first dispersed in a solution containing Hydroxypropyl-β-cyclodextrin, then different acids are added to adjust the pH to 3-5, allowing the compound to fully or nearly fully dissolve, followed by adding the remaining components and adjusting the pH to approximately 7. […] Based on the visual dissolution effect after acid addition, methanesulfonic acid, acetic acid, and lactic acid were preliminarily selected as pH regulators. The preliminarily selected acids were used in subsequent tests with higher compound concentrations. Table 18 Formulation Composition and State

[8] = Solution B, 1 mg/mL (0.05 mg/eye, 50 µL/eye), formulation pH 8.3
[9] = Suspension A, 1 mg/mL (0.05 mg/eye, 50 µL/eye), formulation pH 8.4
[10] = Suspension A, 5 mg/mL (0.25 mg/eye, 50 µL/eye), formulation pH 8.4
[11] = Table 12: 1mg/ml, Polyethylene glycol 400 5, Hydroxypropyl-β-cyclodextrin 10, Tris-HCl buffer (pH 8.3) 10mM, Hydroxypropyl methylcellulose 1, Poloxamer 188 1
[12] = Table 16: 2 mg/mL, Polyethylene Glycol 400 5, Poloxamer 188 1, Hydroxypropyl-β-cyclodextrin 6, Gellan Gum Gelrite 0.15, Tris-HCl Buffer (pH 6.8) 25mM

T1 sequence (P17948 27-1338): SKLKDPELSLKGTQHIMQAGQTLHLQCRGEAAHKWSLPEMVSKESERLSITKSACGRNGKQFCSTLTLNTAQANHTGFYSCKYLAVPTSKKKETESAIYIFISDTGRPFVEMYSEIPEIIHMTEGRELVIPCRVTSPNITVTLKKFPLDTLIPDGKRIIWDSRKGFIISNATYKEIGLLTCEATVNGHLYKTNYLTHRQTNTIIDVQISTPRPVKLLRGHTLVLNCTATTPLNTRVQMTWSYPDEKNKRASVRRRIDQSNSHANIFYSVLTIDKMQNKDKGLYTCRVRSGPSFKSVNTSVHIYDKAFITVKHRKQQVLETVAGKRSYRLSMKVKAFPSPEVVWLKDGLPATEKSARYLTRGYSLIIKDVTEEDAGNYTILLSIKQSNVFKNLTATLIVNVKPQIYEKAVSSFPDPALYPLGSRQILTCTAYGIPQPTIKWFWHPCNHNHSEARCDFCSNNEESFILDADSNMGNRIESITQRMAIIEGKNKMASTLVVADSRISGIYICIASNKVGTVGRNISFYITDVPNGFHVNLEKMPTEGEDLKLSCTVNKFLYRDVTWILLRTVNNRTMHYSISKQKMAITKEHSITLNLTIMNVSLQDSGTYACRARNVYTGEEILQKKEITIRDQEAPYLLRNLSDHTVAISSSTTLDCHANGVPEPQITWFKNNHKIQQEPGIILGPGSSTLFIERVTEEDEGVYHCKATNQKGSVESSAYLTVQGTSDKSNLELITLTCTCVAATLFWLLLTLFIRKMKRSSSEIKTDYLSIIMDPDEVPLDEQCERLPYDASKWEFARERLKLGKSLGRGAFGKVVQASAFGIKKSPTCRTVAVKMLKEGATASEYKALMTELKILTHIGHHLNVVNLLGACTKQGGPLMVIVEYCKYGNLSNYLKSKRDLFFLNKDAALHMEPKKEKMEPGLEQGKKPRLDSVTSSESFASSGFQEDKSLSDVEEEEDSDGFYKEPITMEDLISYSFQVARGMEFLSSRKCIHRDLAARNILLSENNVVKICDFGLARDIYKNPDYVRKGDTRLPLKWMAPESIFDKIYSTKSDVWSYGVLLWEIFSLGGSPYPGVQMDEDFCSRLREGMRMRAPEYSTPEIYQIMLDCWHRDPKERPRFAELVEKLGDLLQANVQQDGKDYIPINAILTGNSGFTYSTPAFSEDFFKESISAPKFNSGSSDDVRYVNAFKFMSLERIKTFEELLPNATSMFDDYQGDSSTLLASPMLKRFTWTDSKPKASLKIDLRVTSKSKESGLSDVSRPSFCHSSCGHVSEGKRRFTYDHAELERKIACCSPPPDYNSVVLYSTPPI

IC50 [1]: ≤ 1 nM
solubility at 8 h [2]: 226 µg/mL (≈ 452 µM)
fraction unbound at 2 h, 2 µM [3]: 0.01 to 0.05
SMILES: CNC(=O)c1ccccc1Sc1ccc2c(/C=C/c3ccc(OCCN4CCCC4)cn3)n[nH]c2c1 [Compound I-6]

State Description ([7]; Table 20, Compound 10 mg/ml, 1M Methanesulfonic Acid 2%, Polyoxyethylene castor oil EL 1%, 0.5M Tris 2%): near-clear solution
State Description ([7]; Table 20, Compound 20 mg/ml, 1M Methanesulfonic Acid 4%, Polyoxyethylene castor oil EL 1%, 0.5M Tris 2%): near-clear solution
SMILES: O=C(NC1CC1)c1ccccc1Sc1ccc2c(/C=C/c3cc(OCCN4CCCC4)ccn3)n[nH]c2c1 [Compound I-110, N-cyclopropyl-2-({3-[(E)-2-{4-[2-(pyrrolidin-1-yl)ethoxy]pyridin-2-yl}ethenyl]-1H-indazol-6-yl}sulfanyl)benzamide]

Second part, the compound before the results:

SMILES: CNC(=O)c1ccccc1Sc1ccc2c(/C=C/c3cnn(CCCN4CCCC4)c3)n[nH]c2c1 [Compound I-32, N-methyl-2-((3-((E)-2-(1-(3-(pyrrolidin-1-yl)propyl)-1H-pyrazol-4-yl)ethenyl)-1H-indazol-6-yl)thio)benzamide]
Choroid AUC [4, 8]: 381 ng·h/g
Conjunctiva AUC [4, 8]: 2142 ng·h/g
Cornea AUC [4, 8]: 590 ng·h/g
Plasma Concentration 0.5h [4, 8]: BLOQ
Retina AUC [4, 8]: 784 ng·h/g
Sclera AUC [4, 8]: 998 ng·h/g
Choroid AUC [4, 9]: 526 ng·h/g
Conjunctiva AUC [4, 9]: 6157 ng·h/g
Cornea AUC [4, 9]: 3380 ng·h/g
Iris AUC [4, 9]: 162 ng·h/g
Retina AUC [4, 9]: 330 ng·h/g
Sclera AUC [4, 9]: 2175 ng·h/g
Choroid AUC [4, 10]: 1594.5 ng·h/g
Conjunctiva AUC [4, 10]: 17380.5 ng·h/g
Cornea AUC [4, 10]: 5175 ng·h/g
Iris AUC [4, 10]: 549.5 ng·h/g
Retina AUC [4, 10]: 613 ng·h/g
Sclera AUC [4, 10]: 2439.5 ng·h/g
concentration at 0.5 h [4, 9]: 2.4 ng/mL
concentration at 0.5 h [4, 10]: 5.6 ng/mL
State Description: pH [5, 11]: ~8
State Description: state [5, 11]: solution
solubility at 8 h [2]: 327 µg/mL (≈ 672 µM)
fraction unbound at 2 h, 2 µM [3]: 0.01 to 0.05

SMILES: CNC(=O)c1c(F)cccc1Sc1ccc2c(/C=C/c3ccc(OCCN4CCCC4)cn3)n[nH]c2c1 [Compound I-36, 2-fluoro-N-methyl-6-({3-[(E)-2-{5-[2-(pyrrolidin-1-yl)ethoxy]pyridin-2-yl}ethenyl]-1H-indazol-6-yl}sulfanyl)benzamide]
IC50 [1]: > 100 nM
solubility at 8 h [2]: 16.2 µg/mL (≈ 31.3 µM)
fraction unbound at 2 h, 2 µM [3]: > 0.05

SMILES: CNC(=O)c1ccccc1Sc1ccc2c(/C=C/c3ccc(OC[C@@H]4CCN(C)C4)cn3)n[nH]c2c1 [Compound I-39]
IC50 [1]: ≤ 1 nM
IC50 [6]: ≤ 1 nM

SMILES: CN(C)Cc1ccc(/C=C/c2n[nH]c3cc(Sc4ccccc4C(=O)NC4CC4)ccc23)nc1 [Compound I-40, N-cyclopropyl-2-((3-((E)-2-(5-((dimethylamino)methyl)pyridin-2-yl)ethenyl)-1H-indazol-6-yl)thio)benzamide]
IC50 [1]: ≤ 1 nM
fraction unbound at 2 h, 2 µM [3]: 0.01 to 0.05

SMILES: O=C(NC1CC1)c1cccc(F)c1Sc1ccc2c(/C=C/c3ccc(CN4CCCC4)cn3)n[nH]c2c1 [Compound I-67, N-cyclopropyl-3-fluoro-2-({3-[(E)-2-{5-[(pyrrolidin-1-yl)methyl]pyridin-2-yl}ethenyl]-1H-indazol-6-yl}thio)benzamide]
State Description: pH [5, 12]: ~7
State Description: state [5, 12]: solution
solubility at 8 h [2]: 118 µg/mL (≈ 230 µM)
fraction unbound at 2 h, 2 µM [3]: > 0.05
State Description ([7]; Table 19, Compound 5 mg/ml, 1M Benzenesulfonic Acid 1%, no Polyoxyethylene castor oil EL, no alkali added): solution
State Description ([7]; Table 19, Compound 5 mg/ml, 1M Methanesulfonic Acid 1%, Polyoxyethylene castor oil EL 1%, 0.5M Tris 0.5%): solution
State Description ([7]; Table 19, Compound 5 mg/ml, 1M Methanesulfonic Acid 1%, no Polyoxyethylene castor oil EL, 0.5M Tris 0.5%): near-clear solution
State Description ([7]; Table 19, Compound 10 mg/ml, 1M Acetic Acid 2%, no Polyoxyethylene castor oil EL, 0.5M Tris 1%): solution
State Description ([7]; Table 19, Compound 10 mg/ml, 1M Lactic Acid 2%, no Polyoxyethylene castor oil EL, 0.5M Tris 1%): solution
State Description ([7]; Table 19, Compound 20 mg/ml, 1M Methanesulfonic Acid 4%, Polyoxyethylene castor oil EL 1%, 0.5M Tris 1.5%): near-clear solution
